Key:
leucocytes = assay: In vitro labelling of leucocytes; type: cell-based; settings: ambient temperature
Description: A solution of the technetium-99m complex of compound 1 was made as follows. A vial contained 0.5 mg compound 1; […] stannous chloride dihydrate; and 4.5 mg sodium chloride; freeze-dried and sealed under nitrogen. To this was added 5.0 ml of sodium pertechnetate eluate from a 135mCi technetium generator.
Mixed leucocytes were obtained from 34 ml of acid citrate anticoagulated blood by dextran sedimentation. These were washed twice and resuspended in 2.0 ml phosphate buffered saline containing approximately 0.25 mg/ml prostaglandin El. The suspension was incubated with 0.2 ml of the solution of the technetium-99m complex of compound 1. Incubation was at ambient temperature, and samples were removed at intervals for analysis. After two minutes, 60% of the radioactivity was associated with blood cells; after 5 minutes, 83% and after 10 minutes, 89%.

[1] = In vitro stability of Tc-99m complexes (radiochemical purity by thin layer chromatography); type: physicochemical
Description: Glass fibre strips impregnated with silica gel form the stationary phase of a fast and accurate analytical system. Two strips, each measuring 20 cm×2 cm were used in each analysis. Approximately five microliters of the solution containing the complex was applied 1 cm from the base of each strip, and one strip developed with saline, the other with methylethylketone (MEK).
Determination of the distribution of radioactivity along each strip was conducted by means of a 100 channel analysis system interfaced to a Nova computer, programmed for peak integration. The Table below indicates the RF values of the major components of the Tc-99m solutions. The observed radiochemical purity of the Tc-99m complexes was generally greater than 80%.
Radiochemical purity determinations by thin layer chromatography were carried out at several time points following formation of the technetium complexes of compounds 1 and 2 (a dl/meso mixture in each case) to determine the stability of the complexes.

[2] = Clinical comparison of dl and meso diastereoisomers of Compound 1, whole body scanning (Example 25a); type: in vivo, normal volunteer subjects (human); settings: 20 minutes p.i.; mean; human
Description: All clinical studies, involving comparisons between the Tc-99m complexes of dl and meso, and d,l and dl stereoisomers of Compound 1 were conducted in normal volunteer subjects at Aberdeen Royal Infirmary.
(a) Comparison of dl and meso diastereoisomers of Compound 1
Data is then taken from area of interest studies employing a whole body scanning device.

[3] = Rat biodistribution of Tc-99m complexes from isolated stereoisomers (Example 24); settings: d- versus l-enantiomer; rats
Description: 0.1 ml of the Tc-99m complex solution was administered by intravenous injection (lateral tail vein) to each of five or six rats (140-220 g). The injected dose was equivalent to approximately 1 mCi of Tc-99m. Three rats were sacrificed at 2 minutes post injection, and 3 at 1 hour or 2 at 2 hours post injection. At dissection, the organs and blood samples shown in the following table were taken, and assayed for radioactivity. The uptake in each organ or tissue was calculated as a percentage of the total activity recovered.
Data in Tables (a) and (b) are the mean from 3 animals at each time point.

[4] = Tomographic imaging of the brain in man; type: in vivo, normal volunteers (human); settings: in words; unseparated dl/meso mixture; human
Description: Tomographic images of the brain were determined using the same complexes in normal volunteers. The device used was a single head rotating gamma camera and minicomputer system. 64 25-second images were accumulated by the gamma camera during 360° circular rotation of the head and shoulders of the volunteer.

[5] = Whole body distribution in human volunteers; type: in vivo, human volunteer subjects; settings: unseparated dl/meso mixture
Text: (§1) The following data allows comparison of the relative performance of the complexes of compounds 1 and 2 (an unseparated dl/meso mixture in each case) in human volunteer subjects.
(ii) Whole body distribution

[6] = Animal biodistribution of Tc-99m complexes of ligands, no separation of stereoisomers (Example 22); type: in vivo, rats; settings: for % id/organ, Blood / % id/organ, Brain / % id/organ, Heart / % id/organ, Liver: i.v. rats, mean of 3 animals
Description: The ratio of diastereoisomers in the Tc-99m complexes used in this experiment is not known.
The results at 2 minutes and 1 hour p.i. are the mean of 3 animals.
The results at 2 hours p.i. are the mean of 2 animals.

[7] = Blood clearance in human volunteers; type: in vivo, human volunteer subjects; settings: unseparated dl/meso mixture, human
Text: as §1

remaining at 2 min ([1]; 2 min post formation, dl/meso mixture, read-out: % of the desired Tc-99m complex): 92%
remaining at 1 h ([1]; 60 min post formation, dl/meso mixture, read-out: % of the desired Tc-99m complex): 87%
remaining at 2 h ([1]; 120 min post formation, dl/meso mixture, read-out: % of the desired Tc-99m complex): 79%
in vitro stability of the Tc-99m complex ([1]; in words, complex of compound 1 versus compound 2): only slow in vitro degradation
% injected activity, Bladder + Urine [2]: 1.4 % injected activity
% injected activity, Brain [2]: 1.95 % injected activity
% injected activity, Kidneys [2]: 1.95 % injected activity
% injected activity, Liver [2]: 13.0 % injected activity
difference in brain uptake of the d- and l-enantiomers (factor) [3]: 1.6
Whole body distribution, Bladder ([5]; 2 hrs p.i., human): 3.9
Whole body distribution, Brain ([5]; 2 hrs p.i., human): 3.70
Whole body distribution, Liver ([5]; 2 hrs p.i., human): 23.35
removal of radioactivity from brain in humans ([5]; in words): Slow removal of radioactivity from brain
uptake in the brain of humans ([5]; in words): Good uptake in the brain
% id/organ, Blood ([6]; 2 min pi): 16.7 % id/organ
% id/organ, Brain ([6]; 2 min pi): 1.5 % id/organ
% id/organ, Heart ([6]; 2 min pi): 0.4 % id/organ
% id/organ, Liver ([6]; 2 min pi): 8.4 % id/organ
% id/organ, Blood ([6]; 1 hr pi): 19.6 % id/organ
% id/organ, Brain ([6]; 1 hr pi): 1.2 % id/organ
% id/organ, Heart ([6]; 1 hr pi): 0.2 % id/organ
% id/organ, Liver ([6]; 1 hr pi): 5.4 % id/organ
uptake in the brain of rats ([6]; in words, unseparated dl/meso mixture): Good uptake in the brain
% id in blood ([7]; 14 minutes post injection): 9.54 % id
% id in blood ([7]; 40 minutes post injection): 7.73 % id
% id in blood ([7]; 60 minutes post injection): 6.38 % id
% id in blood ([7]; 250 minutes post injection): 5.26 % id
SMILES: CC(=NO)C(C)NCC(C)(C)CNC(C)C(C)=NO (racemic) [Compound 1, 4,8-diaza-3,6,6,9-tetramethylundecane-2,10-dione bis oxime]
radioactivity associated with blood cells (leucocytes; after 5 minutes): 83%
radioactivity associated with blood cells (leucocytes; after 10 minutes): 89%
radioactivity associated with blood cells (leucocytes; after two minutes): 60%
quality of tomographic images of the brain [4]: Good quality tomographic images of the brain

Source: patent US4789736A, “Complexes of technetium-99m with propylene amine oximes” (Amersham International plc, priority 1985, dated 1988)
